Structures are written as SMILES. Read-outs that look alike come from different tables or passages of the source. Where only a bound is given, the exact number is not on record here.

The target in the test is T1, human TRPV3 (Homo sapiens, UniProt Q8NET8).
T1 construct: expressed in transfected cells
T1 sequence (Q8NET8 1-790): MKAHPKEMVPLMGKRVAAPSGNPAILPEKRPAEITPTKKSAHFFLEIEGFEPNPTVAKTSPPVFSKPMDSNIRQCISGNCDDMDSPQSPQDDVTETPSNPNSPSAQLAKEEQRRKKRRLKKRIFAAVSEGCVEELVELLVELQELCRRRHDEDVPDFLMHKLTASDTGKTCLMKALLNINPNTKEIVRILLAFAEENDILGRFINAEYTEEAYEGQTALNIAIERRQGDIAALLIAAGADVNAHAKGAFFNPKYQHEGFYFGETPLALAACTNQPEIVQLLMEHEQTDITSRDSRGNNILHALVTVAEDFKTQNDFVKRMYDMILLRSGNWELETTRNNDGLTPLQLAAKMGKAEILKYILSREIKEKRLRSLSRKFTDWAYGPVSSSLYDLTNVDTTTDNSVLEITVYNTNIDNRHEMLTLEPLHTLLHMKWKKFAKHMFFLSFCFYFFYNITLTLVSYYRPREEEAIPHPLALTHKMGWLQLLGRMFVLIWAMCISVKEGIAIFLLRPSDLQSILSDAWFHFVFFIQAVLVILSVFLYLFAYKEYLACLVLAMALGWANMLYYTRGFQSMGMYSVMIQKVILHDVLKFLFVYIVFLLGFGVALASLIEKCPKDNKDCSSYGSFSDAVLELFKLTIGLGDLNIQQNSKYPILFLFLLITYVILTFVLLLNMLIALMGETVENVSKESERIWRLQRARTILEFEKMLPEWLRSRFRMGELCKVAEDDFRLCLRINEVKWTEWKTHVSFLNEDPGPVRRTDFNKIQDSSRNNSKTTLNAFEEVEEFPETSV
Kind of test: In vitro antagonism of recombinant human TRPV3 activation (FLIPR Tetra calcium assay). It counts as cell-based. To be noted: HEK293 cells stably expressing human TRPV3, agonist 2-APB at 80 μM. The procedure:
Test compounds were evaluated for ability to antagonize the activation of recombinant human TRPV3 using FLIPR® Tetra cellular screening. Specifically, on the day prior to the experiment recombinant HEK293 cells that stably express human TRPV3 were removed from tissue culture flasks and plated in growth medium at 20,000 cells/well into Poly-d-lysine coated black/clear 384-well Plate (Corning, 3845) using a Multidrop® dispenser (ThermoScientific, Waltham, Mass.). Prior to the start of the assay, the medium was removed by aspiration, and cells were loaded with 30 μL no-wash FLIPR® Calcium-4 dye (λEX=470-495 nm, λEM=515-575 nm; Molecular Devices, Sunnyvale, Calif.). The cells were then incubated for 90-120 minutes in the dark prior to addition of the test compound.
A double-addition protocol was used. The test compound (i.e., the TRPV3 antagonist) was added at the 10 second time point, followed by the addition of a TRPV3 agonist three minutes later. Each test compound evaluated was first dissolved in DMSO to prepare a 10 mM stock solution. A solution (5×) of the test compound was then prepared in DPBS (Dulbecco's Phosphate Buffered Saline) and 10 μl, of that solution was added to the cells at a delivery rate of 40 μL/sec. The TRPV3 agonist used to activate human TRPV3 expressed by the […] was 2-aminoethoxy-diphenyl borate (2-APB; Tocris Cookson, Ellisville, Mo.) at 80 μM. Final assay volume was 50 μl, Total length of an experimental run was 10 minutes.
Changes in fluorescence were measured over time using the FLIPR® instrument. The intensity of the fluorescence was captured and digitally transferred to an interfaced computer. The maximum response minus minimum response was calculated and expressed as the percentage of the maximum 2-APB response in the absence of antagonist. The concentration of 2-APB corresponds to its EC80.
Table 1 reports the IC50 values measured for the test compounds as human TRPV3 antagonists. […] Actual measured values are shown parenthetically after the reported range. In most cases, the values reported are average values from at least two runs (i.e., n≧2).

Setting [1] is: actual measured value shown parenthetically, in most cases average of at least two runs, read-out: IC50.
The mark [2] stands for this setting: reported range, read-out: IC50 (range class).

Take `O=C1CC(c2ccc(OC(F)(F)F)cc2)([C@H](O)c2ccccn2)C1` (single isomer, unassigned) [Example 251]: under setting [1], the half-inhibitory concentration (IC50) (as a rule, the midpoint of a concentration-inhibition curve) is 1.97 µM.
Still for that read-out and setting: the result for `CC1(O)CC(c2ccnc(C(F)(F)F)c2)(C(O)c2ccccn2)C1` (single isomer, unassigned) [Example 302] reads 0.95 µM.
In the case of `OC(c1ccccn1)C1(c2cc(F)cc(C(F)(F)F)c2)CCC1` (centres unmarked) [Example 14, {1-[3-fluoro-5-(trifluoromethyl)phenyl]cyclobutyl}(pyridin-2-yl)methanol], the IC50 is, setting by setting: under setting [1], > 20 µM; under setting [2], > 20 µM.
Consider `CS(=O)(=O)c1ccc(C2(C(O)c3ccccn3)CCC2)cc1` (centres unmarked) [Example 16, {1-[4-(methylsulfonyl)phenyl]cyclobutyl}(pyridin-2-yl)methanol], for which the concentration for half-maximal inhibition (IC50) is > 20 µM under setting [1] and > 20 µM under setting [2].
Regarding `OC(c1ccccn1)C1(c2ccc(-c3ccccc3)cc2)CCC1` (centres unmarked) [Example 22, [1-(1,1′-biphenyl-4-yl)cyclobutyl](pyridin-2-yl)methanol], the IC50 runs as follows: under setting [1], > 20 µM; under setting [2], > 20 µM.
For `OC(c1ncccn1)C1(c2ccc(OC(F)(F)F)cc2)CCC1` (centres unmarked) [Example 31, pyrimidin-2-yl{1-[4-(trifluoromethoxy)phenyl]cyclobutyl}methanol], under setting [1], the 50% inhibitory concentration (IC50) is 3.08 µM.
As to `OC(c1ncccn1)C1(c2ccccc2F)CCC1` (centres unmarked) [Example 32, [1-(2-fluorophenyl)cyclobutyl](pyrimidin-2-yl)methanol], the IC50 runs as follows: under setting [1], > 20 µM; under setting [2], > 20 µM.
Take `OC(c1ncccn1)C1(c2cccc(F)c2)CCC1` (centres unmarked) [Example 33, [1-(3-fluorophenyl)cyclobutyl](pyrimidin-2-yl)methanol]: the IC50 under setting [1] is 8.5 µM.
`OC(c1ncccn1)C1(c2ccc(F)cc2)CCC1` (centres unmarked) [Example 34, [1-(4-fluorophenyl)cyclobutyl](pyrimidin-2-yl)methanol]: the 50% inhibitory concentration (IC50) was > 20 µM under setting [1] and > 20 µM under setting [2].
For the compound `OC(c1ncccn1)C1(c2ccc(F)c(F)c2)CCC1` (centres unmarked) [Example 35, [1-(3,4-difluorophenyl)cyclobutyl](pyrimidin-2-yl)methanol], the half-maximal inhibitory concentration (IC50) under setting [1] is 10.2 µM.
Turning to `OC(c1ncccn1)C1(c2ccccc2OC(F)(F)F)CCC1` (centres unmarked) [Example 36, pyrimidin-2-yl{1-[2-(trifluoromethoxy)phenyl]cyclobutyl}methanol], under setting [1], the 50% inhibitory concentration (IC50) was 5.18 µM.
On the same count and under the same terms, the result for `CC(c1cccc(Cl)c1)C1(C(O)c2ccccn2)CCC1` (centres unmarked) [Example 44, {1-[1-(3-chlorophenyl)ethyl]cyclobutyl}(pyridin-2-yl)methanol] reads 8 µM; that for `CC(c1cccc(F)c1)C1(C(O)c2ccccn2)CCC1` (centres unmarked) [Example 47, {1-[1-(3-fluorophenyl)ethyl]cyclobutyl}(pyridin-2-yl)methanol], 2.22 µM.
Still for that read-out and setting: under `CC(c1ccccc1F)C1(C(O)c2ccccn2)CCC1` (centres unmarked) [Example 48, {1-[1-(2-fluorophenyl)ethyl]cyclobutyl}(pyridin-2-yl)methanol] stands 5.68 µM.
Consider `CC(c1ccccc1)C1(C(O)c2ccccn2)CCC1` (centres unmarked) [Example 51, [1-(1-phenylethyl)cyclobutyl](pyridin-2-yl)methanol], for which the IC50 under setting [1] came out at 8.25 µM.
For `CC(c1ccc(C(F)(F)F)cc1)C1(C(O)c2ccccn2)CCC1` (centres unmarked) [Example 53, pyridin-2-yl(1-{1-[4-(trifluoromethyl)phenyl]ethyl}cyclobutyl)methanol], under setting [1], the IC50 stood at 1.75 µM.
With `OC(c1ccccn1)C1(c2ccccc2)CCOCC1` (centres unmarked) [Example 60, (4-phenyltetrahydro-2H-pyran-4-yl)(pyridin-2-yl)methanol], the IC50 under setting [1] was determined as 7.55 µM.
Regarding `OC(c1ccccn1)C1(c2cccc(F)c2)CCOCC1` (centres unmarked) [Example 61, [4-(3-fluorophenyl)tetrahydro-2H-pyran-4-yl](pyridin-2-yl)methanol], the IC50 under setting [1] was 7.54 µM.
As to `OC(c1ccccn1)C1(c2ccc(F)cc2)CCOCC1` (centres unmarked) [Example 62, [4-(4-fluorophenyl)tetrahydro-2H-pyran-4-yl](pyridin-2-yl)methanol], under setting [1], the IC50 came to 11.8 µM.
Same read-out and setting: under `OC(c1ccccn1)C1(c2ccc(F)c(F)c2)CCOCC1` (centres unmarked) [Example 63, [4-(3,4-difluorophenyl)tetrahydro-2H-pyran-4-yl](pyridin-2-yl)methanol] stands 7.17 µM.
Same read-out and setting: under `OC(c1ccccn1)C1(c2ccc(Cl)cc2)CCOCC1` (centres unmarked) [Example 64, [4-(4-chlorophenyl)tetrahydro-2H-pyran-4-yl](pyridin-2-yl)methanol] stands 2.34 µM; under `OC(c1ccccn1)C1(c2ccc(C(F)(F)F)cc2)CCOCC1` (centres unmarked) [Example 65, pyridin-2-yl{4-[4-(trifluoromethyl)phenyl]tetrahydro-2H-pyran-4-yl}-methanol], 2.26 µM; under `OC(CC1(c2ccccc2)CCC1)c1ccccn1` (centres unmarked) [Example 68, 2-(1-phenylcyclobutyl)-1-(pyridin-2-yl)ethanol], 3.68 µM.
For the compound `OC(CC1(c2ccc(Cl)cc2)CCC1)c1ccccn1` (centres unmarked) [Example 69, 2-[1-(4-chlorophenyl)cyclobutyl]-1-(pyridin-2-yl)ethanol], under setting [1], the 50% inhibitory concentration (IC50) came to 4.97 µM.
Consider `OC(CC1(c2ccc(F)cc2)CCC1)c1ccccn1` (centres unmarked) [Example 70, 2-[1-(4-fluorophenyl)cyclobutyl]-1-(pyridin-2-yl)ethanol], for which the IC50 under setting [1] came out at 12 µM.
The same measure, in the same setting: under `OC(CC1(c2cccc(F)c2)CCC1)c1ccccn1` (centres unmarked) [Example 71, 2-[1-(3-fluorophenyl)cyclobutyl]-1-(pyridin-2-yl)ethanol] stands 2.13 µM.
The same measure, in the same setting: the result for `OC(CC1(c2cccc(Cl)c2)CCC1)c1ccccn1` (centres unmarked) [Example 72, 2-[1-(3-chlorophenyl)cyclobutyl]-1-(pyridin-2-yl)ethanol] reads 2.24 µM; that for `OC(CC1(c2ccc(Cl)c(Cl)c2)CCC1)c1ccccn1` (centres unmarked) [Example 73, 2-[1-(3,4-dichlorophenyl)cyclobutyl]-1-(pyridin-2-yl)ethanol], 1.94 µM; that for `OC(c1ccccn1)C1(c2ccc(C(F)(F)F)cc2)CCOC1` (centres unmarked) [Example 78, pyridin-2-yl{3-[4-(trifluoromethyl)phenyl]tetrahydrofuran-3-yl}methanol], 3.56 µM.
Regarding `N#Cc1ccc(C2(C(O)c3ccccn3)CCOC2)cc1` (centres unmarked) [Example 79, 4-{3-[hydroxy(pyridin-2-yl)methyl]tetrahydrofuran-3-yl}benzonitrile], the IC50 is > 20 µM under setting [1] and > 20 µM under setting [2].
Turning to `OC(c1ccccn1)C1(c2cccc(OC(F)(F)F)c2)CCOC1` (centres unmarked) [Example 80, pyridin-2-yl{3-[3-(trifluoromethoxy)phenyl]tetrahydrofuran-3-yl}methanol], under setting [1], the half-inhibitory concentration (IC50) was 1.78 µM.
In the case of `N#Cc1cccc(C2(C(O)c3ccccn3)CCOC2)c1` (centres unmarked) [Example 81, 3-{3-[hydroxy(pyridin-2-yl)methyl]tetrahydrofuran-3-yl}benzonitrile], the 50% inhibitory concentration (IC50) is, setting by setting: under setting [1], > 20 µM; under setting [2], > 20 µM.
In the case of `COc1ccc(C2(C(O)c3ccccn3)CCOC2)cc1` (centres unmarked) [Example 83, [3-(4-methoxyphenyl)tetrahydrofuran-3-yl](pyridin-2-yl)methanol], the IC50 is > 20 µM under setting [1] and > 20 µM under setting [2].
Consider `COc1ccc(C2(C(O)c3ccccn3)CCOC2)cc1OC` (centres unmarked) [Example 84, [3-(3,4-dimethoxyphenyl)tetrahydrofuran-3-yl](pyridin-2-yl)methanol], for which the IC50 under setting [1] is > 20 µM and the IC50 under setting [2] is > 20 µM.
On to `OC(c1ccccn1)C1(c2cccc(Cl)c2)COC1` (centres unmarked) [Example 86, [3-(3-chlorophenyl)oxetan-3-yl](pyridin-2-yl)methanol], for which the concentration for half-maximal inhibition (IC50) under setting [1] turned out to be 3.56 µM.

(Values after patent US8772499B2, “TRPV3 modulators” (AbbVie Inc., priority 2011, dated 2014).)
